According to PMC12040169 (PLOS Biology, 2025):

Assay: in vitro
Details: human, hela cells, % viability

SMILES: Cc1cccc(C(=O)NCc2nnc(SCC(=O)N3CCOCC3)n2C)c1 [CBK269723]
- viability at 28.5 h, 10 µM: 95.3%

SMILES: COc1ccccc1NC(=O)COc1ccc(C)cc1[N+](=O)[O-] [CBK269724]
- viability at 28.5 h, 10 µM: 81.6%

SMILES: O=C(CC1(O)C(=O)N(Cc2ccc3c(c2)OCO3)c2ccccc21)c1ccccn1 (stereo not shown) [CBK269725]
- viability at 28.5 h, 10 µM: 94.2%

SMILES: CN1CCN(c2ccc(NC(=O)c3ccc([N+](=O)[O-])o3)cc2)CC1 [CBK269727]
- viability at 28.5 h, 10 µM: 18.8%

SMILES: Cc1ccc(-c2nnc(COC(=O)c3c4c(nc5ccccc35)CCCC4)o2)cc1 [CBK269728]
- viability at 28.5 h, 10 µM: 105%

SMILES: O=C(Nc1cc(-c2nc3ncccc3o2)ccc1Cl)c1ccco1 [CBK269730]
- viability at 28.5 h, 10 µM: 104%

SMILES: Cc1cccc(CSc2nnc(C(C)NC(=O)c3ccccc3F)n2C)c1 (stereo not shown) [CBK269732]
- viability at 28.5 h, 10 µM: 91.6%

SMILES: Cc1ccc(SCCCn2ccnc2)cc1 [CBK269733C]
- viability at 28.5 h, 10 µM: 86.3%

SMILES: C=CCc1cccc(Cl)c1OCCN1CCN(C)CC1 [CBK269734C]
- viability at 28.5 h, 10 µM: 90.5%

SMILES: O=C(CSc1nc2ccccc2c(=O)[nH]1)Nc1ccccc1O [CBK269738]
- viability at 28.5 h, 10 µM: 104%

SMILES: COCc1nnc(SCC(=O)N2CCc3ccccc32)n1-c1ccccc1 [CBK269739]
- viability at 28.5 h, 10 µM: 83.1%

SMILES: CCn1c(CN2CCOCC2)nnc1SCC(=O)Nc1cccc(Br)c1 [CBK269740]
- viability at 28.5 h, 10 µM: 85.6%

SMILES: Cc1ccc(-c2nnc(COC(=O)c3cc(O)nc4ccccc34)o2)cc1 [CBK269741]
- viability at 28.5 h, 10 µM: 88.9%

SMILES: Cc1cccc(C)c1NC(=O)CSc1nnc(C(O)c2ccccc2)n1C (stereo not shown) [CBK269742]
- viability at 28.5 h, 10 µM: 84.8%

SMILES: CCN1C(=O)CC(N2CCN(c3cc(-c4ccc(OC)cc4)nc(C)n3)CC2)C1=O (stereo not shown) [CBK269744]
- viability at 28.5 h, 10 µM: 106%

SMILES: CS(=O)(=O)c1cccc(S(=O)(=O)N2CCN(Cc3ccccc3)CC2)c1 [CBK269747]
- viability at 28.5 h, 10 µM: 88.9%

SMILES: CC(C)(CO)NC(=O)c1cc(S(=O)(=O)N2CCOCC2)ccc1Cl [CBK269748]
- viability at 28.5 h, 10 µM: 94%

SMILES: Cn1c(Cc2ccccc2)nnc1SCC(=O)Nc1ccc(N2CCOCC2)cc1 [CBK269750]
- viability at 28.5 h, 10 µM: 89.8%

SMILES: C=CCn1c(NCc2ccco2)nc2ccccc21 [CBK269751]
- viability at 28.5 h, 10 µM: 87.9%

SMILES: Cc1ccccc1OC(C)C(=O)Nc1ccccc1C(=O)N1CCOCC1 (stereo not shown) [CBK269753]
- viability at 28.5 h, 10 µM: 103%

SMILES: CCOc1ccc(S(=O)(=O)N2CCC(C(=O)O)CC2)cc1Cl [CBK269759]
- viability at 28.5 h, 10 µM: 97.4%

SMILES: O=C(CCC1COc2ccccc2O1)N1CCN(Cc2ccccc2)CC1 (stereo not shown) [CBK269767]
- viability at 28.5 h, 10 µM: 93.7%

SMILES: CCOc1ccc(S(=O)(=O)N(CC)CC(=O)O)cc1C [CBK269770]
- viability at 28.5 h, 10 µM: 91.5%

SMILES: CN1CCN(C(=O)c2ccccc2NC(=O)NC2CCCCC2)CC1 [CBK269771]
- viability at 28.5 h, 10 µM: 94%

SMILES: COc1ccc(-c2noc(CN(C(=O)Cc3ccc(C)cc3)C(C)C)n2)cc1 [CBK269774]
- viability at 28.5 h, 10 µM: 89.6%

SMILES: NC(=O)C1CCN(CC(=O)Nc2cc(C(F)(F)F)ccc2Cl)CC1 [CBK269776]
- viability at 28.5 h, 10 µM: 100%

SMILES: O=C(NC1CCCC1)c1ccc2c(c1)C(=O)N(CC1CCCO1)C2=O (stereo not shown) [CBK269777]
- viability at 28.5 h, 10 µM: 103%

SMILES: c1ccc(-c2nn3c(CN4CCOCC4)nnc3c3ccccc23)cc1 [CBK269779]
- viability at 28.5 h, 10 µM: 89%

SMILES: CCC(C)Nc1nc(SCC(=O)OC)nc(N(C)C)n1 (stereo not shown) [CBK269780]
- viability at 28.5 h, 10 µM: 95.2%

SMILES: Cn1c(NC(=O)COc2ccccc2)nc2ccccc21 [CBK269783]
- viability at 28.5 h, 10 µM: 98.7%

SMILES: CCn1c(C)c(C)n2c3c(=O)n(CCN4CCOCC4)c(=O)n(C)c3nc12 [CBK269786]
- viability at 28.5 h, 10 µM: 90.6%

SMILES: O=C(Cc1ccc(Cl)cc1)NCCc1c[nH]c2ccccc12 [CBK269787]
- viability at 28.5 h, 10 µM: 87%

SMILES: Cc1cc(CNC(=O)COc2cc(Cl)ccc2Cl)c2ccccc2n1 [CBK269788]
- viability at 28.5 h, 10 µM: 89.1%

SMILES: N#Cc1ccccc1NC(=O)CSc1cnn[nH]1 [CBK269795]
- viability at 28.5 h, 10 µM: 89.3%

SMILES: Cc1nn(CCCC(=O)O)c(C)c1I [CBK269796]
- viability at 28.5 h, 10 µM: 91.3%

SMILES: Cc1nn(C(C)CC(=O)NCc2ccco2)c(C)c1Br (stereo not shown) [CBK269797]
- viability at 28.5 h, 10 µM: 89.5%

SMILES: Cc1cc2c(SCc3cc(O)[nH]n3)ncnc2s1 [CBK269799]
- viability at 28.5 h, 10 µM: 93.9%

SMILES: CCC(Sc1nc(C)cc(C)n1)C(=O)Nc1ccc(NC(C)=O)cc1 (stereo not shown) [CBK269804]
- viability at 28.5 h, 10 µM: 89%

SMILES: O=C(Cc1cccs1)NCCc1c[nH]cn1 [CBK269805]
- viability at 28.5 h, 10 µM: 93.2%

SMILES: O=C(O)CC1C(=O)NCCN1Cc1ccc(-c2ccccc2)cc1 (stereo not shown) [CBK269812]
- viability at 28.5 h, 10 µM: 91%

SMILES: COc1ccc(Nc2cn(C)nc2C(=O)O)cc1 [CBK269814]
- viability at 28.5 h, 10 µM: 103%

SMILES: CCOc1ccc(S(=O)(=O)N2CCC(C(=O)NCCO)CC2)cc1 [CBK269817]
- viability at 28.5 h, 10 µM: 88.6%

SMILES: O=C(O)CCCn1cc(NC(=O)Cc2ccccc2)cn1 [CBK269821]
- viability at 28.5 h, 10 µM: 93.9%

SMILES: O=C(NCCc1c[nH]cn1)Nc1cccc(C(F)(F)F)c1 [CBK269822]
- viability at 28.5 h, 10 µM: 105%

SMILES: O=C(O)c1ccc(Nc2ncnc3c2oc2ccccc23)cc1 [CBK269825C]
- viability at 28.5 h, 10 µM: 92%

SMILES: N#Cc1ccc(NC(=O)CCn2cnnn2)cc1 [CBK269832]
- viability at 28.5 h, 10 µM: 91.4%

SMILES: CC1CCN(S(=O)(=O)N2CCNCC2)CC1 [CBK269836C]
- viability at 28.5 h, 10 µM: 91.5%

SMILES: COc1ccccc1C(=O)NCCCc1nc2ccccc2[nH]1 [CBK269837]
- viability at 28.5 h, 10 µM: 87.1%

SMILES: COc1ccc(S(=O)(=O)N2CCN(C(=O)c3ccco3)CC2)c2ccccc12 [CBK269839]
- viability at 28.5 h, 10 µM: 86.8%

SMILES: Cn1c(SCCC(=O)O)nnc1-c1ccc2c(c1)OCO2 [CBK269842]
- viability at 28.5 h, 10 µM: 92.6%

SMILES: Cc1cc(Oc2ccccc2)nc(Oc2ccc(=O)n(-c3ccccc3)n2)n1 [CBK269843]
- viability at 28.5 h, 10 µM: 106%

SMILES: COc1ccccc1/C=C/CN1CCNC(=O)C1CC(=O)O (stereo not shown) [CBK269845]
- viability at 28.5 h, 10 µM: 100%

SMILES: COc1ccc(N2CCN(CC(O)COc3ccc4c(C)cc(=O)oc4c3)CC2)cc1 (stereo not shown) [CBK269847]
- viability at 28.5 h, 10 µM: 86.5%

SMILES: Clc1ccc(OCc2ccccc2)c(CNCc2ccccn2)c1 [CBK269850C]
- viability at 28.5 h, 10 µM: 91.2%

SMILES: Cc1c(Cc2ccccc2)sc(NC(=O)c2cccnc2)c1C(N)=O [CBK269851]
- viability at 28.5 h, 10 µM: 101%

SMILES: O=C(Nc1ccc(N2CCOCC2)c(Cl)c1)c1cccc(-n2cnnc2)c1 [CBK269853]
- viability at 28.5 h, 10 µM: 95.6%

SMILES: CC(=O)N1CCN(c2ccc(NC(=O)CSc3ccc(C)cc3)cc2)CC1 [CBK269854]
- viability at 28.5 h, 10 µM: 95.6%

SMILES: O=C(CCn1c(=O)oc2cc(Cl)ccc21)NCc1ccco1 [CBK269857]
- viability at 28.5 h, 10 µM: 95%

SMILES: N#Cc1c(SCC(=O)O)nc(-c2cccs2)c2c1CCCC2 [CBK269858]
- viability at 28.5 h, 10 µM: 103%

SMILES: COc1ccc(CNc2ccc(N3CCOCC3)c(C(=O)O)c2)c(OC)c1 [CBK269860]
- viability at 28.5 h, 10 µM: 91.3%

SMILES: O=C(O)CCC(=O)Nc1ccccc1C(=O)N1CCCCCC1 [CBK269863]
- viability at 28.5 h, 10 µM: 86.3%

SMILES: COCCNCc1cccc(OCc2ccccc2)c1 [CBK269864C]
- viability at 28.5 h, 10 µM: 87.9%

SMILES: CCOc1ccc(S(=O)(=O)N(C)CC(=O)N2CCN(C)CC2)cc1Cl [CBK269865]
- viability at 28.5 h, 10 µM: 101%

SMILES: COc1nc2ccccc2nc1CCC(=O)NCc1ccco1 [CBK269866]
- viability at 28.5 h, 10 µM: 93.4%

SMILES: CC(C)N(Cc1nc(-c2ccccc2)no1)C(=O)CCc1ccccc1 [CBK269867]
- viability at 28.5 h, 10 µM: 109%

SMILES: COc1cc(S(=O)(=O)NCCc2ccccc2)c(OC)cc1C [CBK269868]
- viability at 28.5 h, 10 µM: 94.1%

SMILES: O=c1[nH]c(CSc2nnc(COc3ccccc3)o2)nc2ccccc12 [CBK269869]
- viability at 28.5 h, 10 µM: 84.9%
